102 compounds from PubChem BioAssay AID1552 (Sanford-Burnham Center for Chemical Genomics, 2009) can be followed below.

Active and inactive are the calls of the source. No rule for the calls is given here.

The assay has as its target Ubiquitin-conjugating enzyme E2 N (Homo sapiens) (UniProt P61088). The assay can be described thus: UBE2N binders by NMR, biophysical, purified protein (AID 1552). As to conditions: NMR binding to purified UBE2N.

Sequence of Ubiquitin-conjugating enzyme E2 N (Homo sapiens) (P61088 whole entry, looked up): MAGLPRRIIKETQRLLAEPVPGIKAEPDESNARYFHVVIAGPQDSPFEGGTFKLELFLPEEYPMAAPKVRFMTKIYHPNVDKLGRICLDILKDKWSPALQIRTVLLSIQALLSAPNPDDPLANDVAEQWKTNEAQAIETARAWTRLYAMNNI

For orientation: Kd means a measure of binding affinity in units of concentration. For the compound `COc1ccc(C(O)c2nccn2C)cc1` (configuration not stated), the Kd was > 4 mM (inactive).
For `Cn1c(O)c(C2=NC(=S)NC2=O)c2ccccc21` the value was > 4 mM (inactive).
For `CC(=O)Nc1ccc(Oc2nc(C)cc(C)n2)cc1` the value was > 4 mM (inactive); for `Cc1occc1C(=O)N1CCN(S(C)(=O)=O)CC1`, > 4 mM (inactive); for `CCOC(=O)CC1Sc2ccccc2NC1=O` (configuration not stated), > 4 mM (inactive).
Regarding `O=c1ccc2cc(O)c(O)cc2o1`, the Kd is > 4 mM (inactive).
For `CC(C)NC(=O)Cc1c(O)c2ccccc2[nH]c1=O` the value was > 4 mM (inactive); for `O=C(Nc1ccccc1CO)c1ccccc1F`, > 4 mM (inactive); for `CC(=O)c1ccc(N2C(=O)C(C(C)C)NC2=S)cc1` (configuration not stated), > 4 mM (inactive).
The result for `COC(=O)c1[nH]c2ccccc2c1C(=O)OC` reads > 4 mM (inactive); that for `COc1ccccc1-c1n[nH]c(=O)o1`, > 4 mM (inactive).
In the case of `O=C1CCCc2c(O)cccc21`, the Kd is > 4 mM (inactive).
For `c1ccc(CN2CCC3(CC2)Nc2ccccc2CO3)cc1`, the Kd is > 4 mM (inactive).
In the case of `CCCCCC/C=C\CCCCCCCc1cccc(O)c1C(=O)O`, the Kd is > 4 mM (inactive).
Turning to `O=c1nc(N2CCOCC2)nc2n1CCO2`, the Kd was > 4 mM (inactive).
For `O=C(O)CN1C(=O)c2cccc([N+](=O)[O-])c2C1=O` the value was > 4 mM (inactive); for `CCn1nnc(NC(=O)c2ccccc2Br)n1`, > 4 mM (inactive); for `COc1ccc2c3c([nH]c2c1)C(C)=NCC3`, > 4 mM (inactive).
`CC(=O)c1cccc(NC(=O)N2CCc3ccccc3C2)c1`: the Kd is > 4 mM (inactive).
For `COc1ccc(C(C)=O)c(O)c1`, the Kd is > 4 mM (inactive).
For `CN1CCN(c2ccc(C(=O)O)cc2)CC1` the value was > 4 mM (inactive); for `CC(=O)c1cc(CN2C(=O)c3ccccc3C2=O)cs1`, > 4 mM (inactive).
Take `Cc1nnc(C)n1/N=C/c1cccs1`: the Kd was > 4 mM (inactive).
The result for `Cc1ccc(C(=O)n2cnnc2N)cc1C` reads > 4 mM (inactive); that for `O=C(Nc1ccc2c(c1)OCCO2)c1ccncc1`, > 4 mM (inactive); that for `CC(=O)c1c(O)cc(C)n(Cc2ccccc2)c1=O`, > 4 mM (inactive).
For `COc1ccc2nc(SCC(N)=O)[nH]c2c1` the value was > 4 mM (inactive).
As to `Cc1nc(-c2ccc(C(=O)O)s2)cs1`, the Kd was > 4 mM (inactive).
In the case of `Cc1cc2cc3c(C)cc(=O)oc3c(C)c2o1`, the Kd is > 4 mM (inactive).
For `CC[C@@H]1[C@@H](O)N2C3C[C@H]1C1C(O)[C@]4(C[C@@H]12)c1ccccc1N(C)[C@@H]34` (some centres not stated) the value was > 4 mM (inactive).
Take `O=C1C2CC=C(Cl)CC2C(=O)N1c1ccccc1O` (configuration not stated): the Kd was > 4 mM (inactive).
Take `CC(=O)Nc1ccc(-c2nc(C)c(C(C)=O)n2O)cc1`: the Kd was > 4 mM (inactive).
With `CNC(=S)Nc1ncn(Cc2cccc(F)c2)n1`, the Kd is > 4 mM (inactive).
For `COc1ccc(NC(=O)N2CCCCC2)cc1`, the Kd is > 4 mM (inactive).
The result for `CC(=O)O[C@@H]1CC2C(C)(C)C=CC(=O)[C@]2(C)C2CC[C@@]3(C)[C@H](c4ccoc4)OC(=O)C4OC43[C@@]21C` (some centres not stated) reads > 4 mM (inactive); that for `O=C(O)c1csc(-c2cccs2)n1`, > 4 mM (inactive).
The result for `COc1ccc2c(c1)CCCN2C(N)=O` reads > 4 mM (inactive); that for `O=C1CC(=O)N2N=C(c3ccccc3)SC2=N1`, > 4 mM (inactive).
`Cc1ccc(C(=O)Nc2nnc(-c3ccncc3)s2)o1`: the Kd was > 4 mM (inactive).
The result for `COC(=O)c1ccc(NC(=O)CC2NCCNC2=O)cc1` (configuration not stated) reads > 4 mM (inactive); that for `O=C(O)CCC(=O)Nc1nnc(C(F)(F)F)s1`, > 4 mM (inactive).
The result for `OC[C@H]1O[C@@H](Oc2ccc(O)cc2)[C@H](O)[C@@H](O)[C@@H]1O` reads > 4 mM (inactive); that for `Cc1nnc(SCC(=O)NCc2ccccc2)[nH]c1=O`, > 4 mM (inactive).
For `Nc1cccc(C(=O)Nc2ccc(N)cc2Cl)c1` the value was > 4 mM (inactive); for `Cc1cccc(NC(=O)c2ccccc2C(=O)O)c1`, > 4 mM (inactive); for `O=C(O)Cn1cc(C(=O)C2CC2)c2ccccc21`, > 4 mM (inactive).
For the compound `CN(C)Cc1nc2c([nH]1)c(=O)[nH]c(=O)n2C`, the Kd is > 4 mM (inactive).
In the case of `Cn1c(SCc2ccon2)nc2ccccc2c1=O`, the Kd is > 4 mM (inactive).
For the compound `COc1ccc(-c2nc(C)sc2CC(=O)O)cc1`, the Kd is > 4 mM (inactive).
Regarding `OCC1CCCCCN1` (configuration not stated), the Kd was > 4 mM (inactive).
As for `CC(=O)O[C@@H]1CC2C(C)(C)[C@H](O)CC[C@]2(C)C2CC[C@@]3(C)[C@H](c4ccoc4)OC(=O)C4OC43[C@@]21C` (some centres not stated), the Kd is > 4 mM (inactive).
As to `Cc1nc(-c2ccccc2)sc1C(N)=O`, the Kd is > 4 mM (inactive).
The result for `O=C(O[C@@H]1Cc2c(O)cc(O)cc2O[C@@H]1c1ccc(O)c(O)c1)c1cc(O)c(O)c(O)c1` reads > 4 mM (inactive); that for `c1cncc(Nc2nc(-c3cccnc3)cs2)c1`, > 4 mM (inactive); that for `Nc1ccc(CCC(=O)O)cc1`, > 4 mM (inactive).
As for `Cc1ccccc1NC(=O)C1CC(=O)N=C(N)S1` (configuration not stated), the Kd is > 4 mM (inactive).
The result for `CNC(=O)Nc1cccc(C(F)(F)F)c1` reads > 4 mM (inactive); that for `O=C(c1ccco1)N1CCn2c1nc1ccccc12`, > 4 mM (inactive).
As to `O=C(NCCCSc1ncccn1)Nc1ncccn1`, the Kd was > 4 mM (inactive).
Consider `CC(=O)O[C@H]1CC[C@]2(C)C3CC[C@@]4(C)C(CC5O[C@@]6(CCC(C)CO6)[C@@H](C)C54)C3CC[C@@H]2C1` (some centres not stated), for which the Kd was > 4 mM (inactive).
The result for `O=C(O)c1ccccc1C(=O)Nc1ccccc1` reads > 4 mM (inactive); that for `O=C(NC1CCS(=O)(=O)C1)c1ccccc1` (configuration not stated), > 4 mM (inactive).
Consider `O=C(O)c1cncc(-c2cccs2)c1`, for which the Kd was > 4 mM (inactive).
For `Cn1cc(C(=O)N/N=C/c2ccccc2)ccc1=O` the value was > 4 mM (inactive).
As for `Cn1ccnc1SCc1cc(=O)[nH]c2ccccc12`, the Kd was > 4 mM (inactive).
For `COC(=O)Cc1csc(N)n1` the value was > 4 mM (inactive).
As for `O=C(c1cc(Cl)cc(Cl)c1)N1CCOCC1`, the Kd is > 4 mM (inactive).
For `C=CCSCC=C` the value was > 4 mM (inactive); for `CC12CC[C@H](CC1=O)C2(C)C`, > 4 mM (inactive); for `CC(C)(O)P(C)(=O)c1ccccc1` (configuration not stated), > 4 mM (inactive).
For the compound `Cc1cn2c(-c3cccnc3)nnc2s1`, the Kd is > 4 mM (inactive).
With `Cn1nnc2cc(CO)ccc21`, the Kd was > 4 mM (inactive).
For the compound `S=C(NCC1CCCO1)NC1CC1` (configuration not stated), the Kd is > 4 mM (inactive).
The result for `NC(=O)Cn1cnc2c(cnn2-c2ccccc2)c1=O` reads > 4 mM (inactive); that for `CC(C)=CCCC1(C)C=Cc2c(O)c3c(c(CC=C(C)C)c2O1)OC12C(=CCCC1C(C)(C)O[C@@]2(C/C=C(\C)C(=O)O)C(=O)O)C3=O` (some centres not stated), > 4 mM (inactive); that for `Cc1cc(C)n(/N=C\c2cccs2)c(=O)c1C(N)=O`, > 4 mM (inactive).
In the case of `O=c1n(-c2ccccc2)c(=O)n2n1CCCC2`, the Kd is > 4 mM (inactive).
Turning to `COc1ccccc1-c1nc(=S)[nH][nH]1`, the Kd was > 4 mM (inactive).
For `COCCn1c(SC)nc2c1c(=O)[nH]c(=O)n2C` the value was > 4 mM (inactive); for `CCOc1ccc(C)cc1S(=O)(=O)n1ccc(C)n1`, > 4 mM (inactive); for `CCOc1nc(C)ccc1-c1noc(-c2ccncc2)n1`, > 4 mM (inactive).
As to `CC(CC(O)C1OC1(C)C)[C@@H]1CCC2(C)C3=CCC4C(C)(C)C(=O)CCC4(C)C3CC[C@@]12C` (some centres not stated), the Kd is > 4 mM (inactive).
In the case of `COC(=O)c1cccnc1Oc1ccccc1`, the Kd is > 4 mM (inactive).
For `Cc1nc2ccc(NC(=O)N3CCSCC3)cc2s1` the value was > 4 mM (inactive).
As for `Cc1ccc(/C=C2/C(=O)N=C(N)N2C)s1`, the Kd is > 4 mM (inactive).
For `COC(=O)NCc1cc2cc(Cl)ccc2[nH]1` the value was > 4 mM (inactive); for `N#Cc1nc(N2CCCCC2)nc(N2CCOCC2)n1`, > 4 mM (inactive); for `Cc1cc(C(=O)N2CCN(c3ccccn3)CC2)c(C)o1`, > 4 mM (inactive).
For `Cc1cc(C)nc(/N=C(/N)N2CCOCC2)n1` the value was > 4 mM (inactive); for `NC(=O)c1ccc(C(N)=O)cc1`, > 4 mM (inactive).
The result for `Cn1cnc2c(=O)[nH]cc([N+](=O)[O-])c21` reads > 4 mM (inactive); that for `CNC(=O)C(=O)Nc1ccc(C)c(C)c1`, > 4 mM (inactive); that for `COC(=O)c1cccc(Cn2nnc3ccccc3c2=O)c1`, > 4 mM (inactive).
`Cc1cc(C(=O)N2CCN(c3ccccn3)CC2)no1`: the Kd was > 4 mM (inactive).
In the case of `O=[n+]1c2c(n([O-])c3ccccc31)CCCC2`, the Kd is > 4 mM (inactive).
For the compound `COc1cc([C@@H]2c3cc4c(cc3C(OC3O[C@@H]5COC(C)O[C@H]5[C@H](O)[C@H]3O)C3COC(=O)[C@@H]32)OCO4)cc(OC)c1O` (some centres not stated), the Kd is > 4 mM (inactive).
For `CC(C)NC(=O)c1nc2ccccc2s1` the value was > 4 mM (inactive); for `Cc1cc(=O)[nH]c(NCc2cccnc2)n1`, > 4 mM (inactive); for `COc1ccc([C@H]2COc3c(ccc(O)c3OC)C2)c(OC)c1O`, > 4 mM (inactive).
The result for `Oc1ccc(-n2cncn2)cc1` reads > 4 mM (inactive); that for `CNC(=O)C1COc2ccccc2O1` (configuration not stated), > 4 mM (inactive).
Take `CC(C)(C(N)=O)/[N+]([O-])=C\c1ccccc1`: the Kd was > 4 mM (inactive).
